Common to all, as to format: biochemical
Assay [1] has as its target T1, FLhPIF1 (full length human PIF1) (Homo sapiens, UniProt Q9H611).
T1 construct: Full length human PIF1 (FLhPIF1) was expressed and purified as a His-SUMO fusion; His-SUMO (cleaved yes); made in house; 'following similar protocols' to hPIF1HD (ArcticExpress BL21(DE3) E. coli)
T1 sequence (Q9H611 1-641): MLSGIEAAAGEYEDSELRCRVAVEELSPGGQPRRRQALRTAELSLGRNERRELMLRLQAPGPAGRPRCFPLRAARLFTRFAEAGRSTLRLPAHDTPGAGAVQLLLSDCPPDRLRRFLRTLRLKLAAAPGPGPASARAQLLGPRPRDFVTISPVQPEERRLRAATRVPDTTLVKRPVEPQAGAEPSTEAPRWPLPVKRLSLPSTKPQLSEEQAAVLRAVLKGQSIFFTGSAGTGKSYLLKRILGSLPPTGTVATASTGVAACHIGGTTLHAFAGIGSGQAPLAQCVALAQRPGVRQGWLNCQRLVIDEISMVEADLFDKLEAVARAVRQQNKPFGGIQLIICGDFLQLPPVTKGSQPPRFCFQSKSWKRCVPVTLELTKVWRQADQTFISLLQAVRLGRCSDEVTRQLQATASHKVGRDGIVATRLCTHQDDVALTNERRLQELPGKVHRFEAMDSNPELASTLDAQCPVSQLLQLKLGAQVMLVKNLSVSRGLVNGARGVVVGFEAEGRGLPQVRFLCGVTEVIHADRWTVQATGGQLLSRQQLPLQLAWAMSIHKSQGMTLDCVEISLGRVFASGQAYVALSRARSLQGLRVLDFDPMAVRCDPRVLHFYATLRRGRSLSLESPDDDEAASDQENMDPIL
Kind of assay: radiometric strand displacement helicase assay, no pre-incubation. The note with it: for inhibition at 1000 µM: 1 mM single point, gel-based DNA unwinding assay, four repeats (S4 n=3); for IC50: 0.0078–2 mM compound, 10 nM FLhPIF1, 0.1 nM DNA substrate, n = 3, read-out: IC50 for inhibition of FLhPIF1 helicase activity; for fold increase in inhibition at 1 mM relative to compound 1: 1 mM single point helicase screen. The protocol: Helicase activity was assayed using a radiometric strand displacement assay employing a partially single- and double-stranded substrate generated by annealing two oligonucleotides: 5′-(T)55-[…] and 5′-[…], as described previously ([19],[28]). […] SMIs (100 mM stocks in DMSO) were assayed at up to 2 mM without pre-incubation with FLhPIF1, unless otherwise stated. […] Dried gels were exposed to phosphorimaging plates (Fujifilm) for imaging and quantification (Fuji FLA3000, image gauge V3.3 software). IC50 values were analysed by non-linear regression (variable slope) using GraphPad Prism.

The target of assay [2] is T2, FLhPIF1 (Homo sapiens, UniProt Q9H611).
T2 construct: Full length human PIF1 (FLhPIF1) was expressed and purified as a His-SUMO fusion; His-SUMO (cleaved yes); made in house; 'following similar protocols' to hPIF1HD (ArcticExpress BL21(DE3) E. coli)
T2 sequence (Q9H611 1-641): T1 sequence (Q9H611 1-641)
Briefly: helicase assay after pre-incubation of SMI with FLhPIF1. The note with it: for pre-incubation time-course, inhibition of unwinding: 0–3 h pre-incubation, 100 nM FLhPIF1, 100 μM SMI, n = 4; for effect of pre-incubation on inhibition of unwinding: 100 μM SMI with 100 nM FLhPIF1, 1 h at 22°C, then 1:10 dilution, compared to no pre-incubation; for IC50: 2 h pre-incubation at 22°C with 100 nM FLhPIF1, then 1:10 dilution into helicase assay, read-out: IC50 for dsDNA unwinding by FLhPIF1 following pre-incubation. The protocol:
Helicase activity was assayed using a radiometric strand displacement assay employing a partially single- and double-stranded substrate generated by annealing two oligonucleotides: 5′-(T)55-[…] and 5′-[…], as described previously ([19],[28]). The reaction buffer was 20 mM HEPES–NaOH pH 7.5, 20 mM NaCl, 5.5 mM MgCl2, 5 mM ATP, 1 mM DTT and 0.1 mg/ml BSA. SMIs (100 mM stocks in DMSO) were assayed at up to 2 mM without pre-incubation with FLhPIF1, unless otherwise stated. Reactions (0.1 nM substrate) were incubated at 37°C for 20 min, followed by addition of 0.2 volumes of 120 mM EDTA, 0.6% (w/v) SDS, 60% (v/v) glycerol and 0.1% (w/v) bromophenol blue before resolution of products by polyacrylamide gel electrophoresis (8%, 19:1 acrylamide:bis-acrylamide), 1× TBE (90 mM Tris–borate/2 mM EDTA, pH 8.3 with 0.05% (w/v) SDS buffer). Dried gels were exposed to phosphorimaging plates (Fujifilm) for imaging and quantification (Fuji FLA3000, image gauge V3.3 software). IC50 values were analysed by non-linear regression (variable slope) using GraphPad Prism.
First, we screened inhibitory activity of the SMIs listed in Table 1, following incubation of 100 nM FLhPIF1 with 100 μM SMI for 1 h at 22°C in the absence of substrates (ATP and DNA), before a 1:10 dilution into helicase reactions. […] Next, compounds 2, 5, 6 and 11, along with 4 and 1D were selected for analysis in a pre-incubation time-course (100 nM FLhPIF1, 100 μM SMI), up to 3 h before assaying helicase activity.
In parallel, IC50 values for inhibition of human UPF1 (hUPF1) helicase activity by the SMIs were also determined under the same conditions. UPF1-like SF1B helicases are the most closely related family of helicases to PIF1, with significant structural and mechanistic similarity ([52]).
Figure 6. SMI IC50 for dsDNA unwinding determined following pre-incubation. SMIs (0.0078–2 mM SMI) were incubated for 2 h at 22°C (100 nM FLhPIF1 or hUPF1) before dilution (1:10) in the standard helicase assay (0.1 nM DNA substrate). For 1D and 6, structures, electrophoresis of FLhPIF1 reaction product and graphs for IC50 value determination are shown. The graphed data include the activity of SMIs towards hUPF1 and IC50 values obtained are given. See Supplementary Figure S14 for the complete data set. TEXT PRINTED IN THE PICTURE: 1D: IC50 (μM): PIF1: 978 ± 221; IC50 (μM): UPF1: N.D. | 6: IC50 (μM): PIF1: 79.4 ± 16; IC50 (μM): UPF1: 1750 ± 426

Assay [3] deals with T2, FLhPIF1. Briefly: DNA-dependent ATPase assay. The note with it: 1 mM compound, 25 nM FLhPIF1, 250 nM d(T)55, 10 min at 37°C. The protocol: ATP hydrolysis was measured under helicase reaction conditions with 25 nM FLhPIF1 and 250 nM oligo d(T)55 and 0.0125 μM [γ-^32P]ATP (6000 Ci/mmol). Released phosphate was quantified using the charcoal binding assay of Iggo and Lane ([45]) after 10 min at 37°C.
Supplementary Figure 11. ATPase activity determined with and without inhibitors. ATPase assays, 25 nM FLhPIF1, 250 nM d(T)55 ssDNA, were performed for 10 minutes at 37 °C under helicase reaction conditions, with and without 1 mM compound (n = 3). Compound 2 was not included in the analysis due to lack of available material. […] The data are broadly in agreement with the results of ssDNA binding EMSA except compound 6 (see discussion).

The structures appear in SMILES notation.

Take `CC(=O)c1ccc(-c2csc(N)n2)cc1` [Compound 2]: the inhibition at 1000 µM in assay [1] came to 79.1 ± 5.2%. Further, in assay [1] (no pre-incubation), the 50% inhibitory concentration (IC50) was found to be 165 ± 75 µM. Moreover, in assay [2], the “pre-incubation time-course, inhibition of unwinding” value is given as “increasing inhibition with increasing time of pre-incubation”; the “effect of pre-incubation on inhibition of unwinding” value (“effect … on inhibition of unwinding” below) is “significantly enhanced inhibitory activity”; the half-maximal inhibitory concentration (IC50) was 65 ± 25 µM.
The like results for `N#Cc1ccc(-c2csc(N)n2)cc1` [Compound 5] were, in that order, 84 ± 4.1%, 105 ± 6 µM, “increasing inhibition with increasing time of pre-incubation”, “significantly enhanced inhibitory activity” and 67.4 ± 20 µM.
As for `Nc1nc(-c2ccc(C(=O)c3ccccc3)cc2)cs1` [Compound 6], in assay [1], the inhibition at 1000 µM turned out to be 82.3 ± 6.6%. Moreover, in assay [1] (no pre-incubation), the IC50 stood at 36 ± 7 µM and the “fold improvement of helicase IC50 compared to progenitor 1F” value is 30 fold. Moreover, in assay [2], the “pre-incubation time-course, inhibition of unwinding” value is listed as “increasing inhibition with increasing time of pre-incubation”; the “effect … on inhibition of unwinding” value was “significantly enhanced inhibitory activity”; the IC50 is 79.4 ± 16 µM. Also, in assay [3], the “inhibition of DNA-dependent ATPase” value is “effective inhibitor of DNA-dependent ATPase”.
In the case of `CC(=O)Nc1ccc(-c2csc(N)n2)cc1-c1ccc(C)cc1` [Compound 10], the “inhibition of FLhPIF1 helicase activity in 1 mM single-point screen” value in assay [1] (1 mM) is “strongly inhibited the protein”. In assay [1], the “fold increase in inhibition at 1 mM relative to compound 1” value is on record as “up to 6.5 fold” and the inhibition at 1000 µM is 80.9 ± 5.5%. In assay [1] (no pre-incubation), the IC50 came to 174 ± 7 µM. Besides, the “effect … on inhibition of unwinding” value in assay [2] was “significantly enhanced inhibitory activity”.
For the compound `CC(=O)Nc1ccc(-c2csc(N)n2)cc1C1=CCNCC1` [Compound 11], in assay [1], the “fold increase in inhibition at 1 mM relative to compound 1” value is recorded as “up to 6.5 fold” and the inhibition at 1000 µM worked out at 84.8 ± 3.4%. The IC50 in assay [1] (no pre-incubation) is 188 ± 8 µM. Besides, in assay [2], the “pre-incubation time-course, inhibition of unwinding” value is on record as “increasing inhibition with increasing time of pre-incubation”; the “effect … on inhibition of unwinding” value is on record as “significantly enhanced inhibitory activity”; the half-maximal inhibitory concentration (IC50) was 109 ± 47 µM.

The inhibition is the change of the read-out against control, counted positive when it falls. A low value points to little suppression. A word on the IC50: it is the concentration that inhibits the measured activity by half.

The values are drawn from publication PMC11551755, “Structure-based discovery of first inhibitors targeting the helicase activity of human PIF1” (Nucleic Acids Research, 2024).
